Literature values as cited in US20200319191A1, “MOLECULAR PROFILING FOR CANCER” (Caris MPI, Inc., priority 2015, published 2020).
Where two headings read alike, the source gives them in different places.

What was measured:
[1] = biological target: T1, ribonucleotide reductase (Homo sapiens, UniProt P23921)
T1 sequence (P23921 1-792): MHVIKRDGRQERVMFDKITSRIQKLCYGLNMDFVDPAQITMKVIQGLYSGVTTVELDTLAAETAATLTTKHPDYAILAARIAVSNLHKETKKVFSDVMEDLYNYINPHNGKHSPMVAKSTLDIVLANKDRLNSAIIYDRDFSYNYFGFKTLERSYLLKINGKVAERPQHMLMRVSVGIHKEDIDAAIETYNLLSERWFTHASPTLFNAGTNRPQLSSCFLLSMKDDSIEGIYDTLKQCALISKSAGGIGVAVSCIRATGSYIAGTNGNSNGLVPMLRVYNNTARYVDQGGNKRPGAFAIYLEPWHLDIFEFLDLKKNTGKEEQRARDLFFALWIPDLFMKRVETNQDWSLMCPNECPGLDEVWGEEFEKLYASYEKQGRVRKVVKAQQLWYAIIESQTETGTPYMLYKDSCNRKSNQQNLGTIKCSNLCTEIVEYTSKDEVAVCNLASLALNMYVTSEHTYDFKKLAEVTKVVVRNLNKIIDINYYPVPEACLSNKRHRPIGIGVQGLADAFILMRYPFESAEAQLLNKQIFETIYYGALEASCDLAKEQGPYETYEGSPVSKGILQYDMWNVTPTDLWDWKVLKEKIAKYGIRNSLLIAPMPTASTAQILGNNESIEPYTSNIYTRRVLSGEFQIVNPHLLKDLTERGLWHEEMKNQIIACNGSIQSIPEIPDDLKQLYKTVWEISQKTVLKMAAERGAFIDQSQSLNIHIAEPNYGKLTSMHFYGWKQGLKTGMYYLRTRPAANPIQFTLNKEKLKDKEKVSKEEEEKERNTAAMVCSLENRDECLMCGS

[2] = biological target: c-Kit (Homo sapiens, UniProt P10721)
c-Kit, sequence (P10721 26-976): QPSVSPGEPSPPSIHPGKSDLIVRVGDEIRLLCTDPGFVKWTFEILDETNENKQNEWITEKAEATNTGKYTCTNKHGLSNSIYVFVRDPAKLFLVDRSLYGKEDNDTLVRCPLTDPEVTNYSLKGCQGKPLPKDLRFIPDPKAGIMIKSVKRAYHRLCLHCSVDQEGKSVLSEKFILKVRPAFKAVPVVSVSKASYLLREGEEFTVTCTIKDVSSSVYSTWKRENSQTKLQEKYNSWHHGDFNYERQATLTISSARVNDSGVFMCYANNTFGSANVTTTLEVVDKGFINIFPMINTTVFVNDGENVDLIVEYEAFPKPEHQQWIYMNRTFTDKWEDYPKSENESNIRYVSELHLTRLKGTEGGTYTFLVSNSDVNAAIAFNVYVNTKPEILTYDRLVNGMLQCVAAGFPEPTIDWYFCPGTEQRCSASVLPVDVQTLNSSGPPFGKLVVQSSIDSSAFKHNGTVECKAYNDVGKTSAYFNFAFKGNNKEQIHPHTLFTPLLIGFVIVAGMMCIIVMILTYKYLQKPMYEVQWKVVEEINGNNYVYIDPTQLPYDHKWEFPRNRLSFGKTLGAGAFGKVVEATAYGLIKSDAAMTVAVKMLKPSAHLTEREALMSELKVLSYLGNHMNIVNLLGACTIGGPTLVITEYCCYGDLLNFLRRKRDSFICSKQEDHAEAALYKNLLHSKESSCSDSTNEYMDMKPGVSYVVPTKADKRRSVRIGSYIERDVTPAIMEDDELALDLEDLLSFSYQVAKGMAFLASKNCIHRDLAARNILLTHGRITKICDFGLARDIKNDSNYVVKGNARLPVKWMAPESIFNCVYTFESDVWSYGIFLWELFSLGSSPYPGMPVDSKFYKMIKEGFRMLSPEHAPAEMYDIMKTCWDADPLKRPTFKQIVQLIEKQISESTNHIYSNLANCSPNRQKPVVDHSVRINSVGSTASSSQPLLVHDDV

[3] = test system: platelet-derived growth factor receptor (PDGFR)
[4] = Hormonal Agents, ER Positive (IHC)=T

SMILES: Nc1ccn([C@@H]2O[C@H](CO)[C@@H](O)C2(F)F)c(=O)n1 [Gemcitabine]
- effect on ribonucleotide reductase activity [1]: synthesis. Gemcitabine is a deoxycitidine analogue which inhibits ribonucleotide reductase

SMILES: Cc1ccc(NC(=O)c2ccc(CN3CCN(C)CC3)cc2)cc1Nc1nccc(-c2cccnc2)n1 [Imatinib, imatinib]
- kinase activity [2]: block the activity
- kinase activity [3]: block the activity

SMILES: CO[C@H]1C[C@@H]2CC[C@@H](C)[C@@](O)(O2)C(=O)C(=O)N2CCCC[C@H]2C(=O)O[C@H]([C@H](C)C[C@@H]2CC[C@@H](OC(=O)C(C)(CO)CO)[C@H](OC)C2)CC(=O)[C@H](C)/C=C(\C)[C@@H](O)[C@@H](OC)C(=O)[C@H](C)C[C@H](C)/C=C/C=C/C=C/1C [temsirolimus]
- benefit by PIK3CA status (PIK3CA exon 20 mutations): associated with benefit from mTOR inhibitors (everolimus, temsirolimus). Evidence

SMILES: CC[C@@]1(O)C(=O)OCc2c1cc1n(c2=O)Cc2cc3c(CN(C)C)c(O)ccc3nc2-1 [topotecan]
- response by TOPOI expression (expression of TOPOI): DNA molecule. Expression of TOPOI has been associated with response to TOPOI

SMILES: CN(C)CCOc1ccc(/C(=C(/CCCl)c2ccccc2)c2ccccc2)cc1 [toremifene]
- Evid. Level, ER Positive (IHC) (Hormonal Agents, ER Positive (IHC)=F): 1
- Bene. Level, ER Positive (IHC) [4]: 1
- Evid. Level, ER Positive (IHC) [4]: 1

SMILES: CCCS(=O)(=O)Nc1ccc(F)c(C(=O)c2c[nH]c3ncc(-c4ccc(Cl)cc4)cc23)c1F [vemurafenib]
- tumors that develop in treated patients (patients treated with BRAF inhibitor, likely paradoxical activation of the MAPK pathway): cutaneous squamous cell carcinomas and keratoacanthomas that develop in patients treated

SMILES: CCC1=C[C@@H]2CN(C1)Cc1c([nH]c3ccccc13)[C@@](C(=O)OC)(c1cc3c(cc1OC)N(C)[C@H]1[C@@](O)(C(=O)OC)[C@H](OC(C)=O)[C@]4(CC)C=CCN5CC[C@]31[C@@H]54)C2 [vinorelbine]
- resistance by loss of FBXW7 (loss of FBXW7, tubulin-targeting agents): loss of FBXW7 confers resistance to tubulin-targeting agents like paclitaxel or vinorelbine,
